{"source": "patent US20050176813A1", "about": "“Novel chalcone derivatives and uses thereof” (priority 2002, published 2005)", "key": {"Kv1.3": {"biological_target": "Kv1.3 (Homo sapiens, UniProt P22001)", "sequence (P22001 whole entry)": "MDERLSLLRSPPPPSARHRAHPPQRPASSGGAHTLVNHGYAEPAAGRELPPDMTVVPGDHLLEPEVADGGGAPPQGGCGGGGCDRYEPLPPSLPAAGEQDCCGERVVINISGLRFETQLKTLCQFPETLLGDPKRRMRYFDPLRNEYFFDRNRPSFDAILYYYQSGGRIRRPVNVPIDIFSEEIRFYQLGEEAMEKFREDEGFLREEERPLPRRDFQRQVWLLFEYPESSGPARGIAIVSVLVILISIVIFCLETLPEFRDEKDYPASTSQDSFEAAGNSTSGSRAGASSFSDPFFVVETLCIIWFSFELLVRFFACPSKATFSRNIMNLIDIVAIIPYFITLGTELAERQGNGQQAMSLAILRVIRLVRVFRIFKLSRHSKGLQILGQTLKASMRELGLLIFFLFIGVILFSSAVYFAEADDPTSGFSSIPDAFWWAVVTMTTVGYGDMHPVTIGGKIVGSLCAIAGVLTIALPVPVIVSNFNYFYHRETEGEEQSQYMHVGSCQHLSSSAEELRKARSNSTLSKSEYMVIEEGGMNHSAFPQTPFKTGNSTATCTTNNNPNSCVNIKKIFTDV", "assay": "Kv1.3 channel block, estimated Kd (Table 1)", "format": "binding"}, "Kv1.7": {"biological_target": "Kv1.7 (Homo sapiens, UniProt Q96RP8)", "sequence (Q96RP8 whole entry)": "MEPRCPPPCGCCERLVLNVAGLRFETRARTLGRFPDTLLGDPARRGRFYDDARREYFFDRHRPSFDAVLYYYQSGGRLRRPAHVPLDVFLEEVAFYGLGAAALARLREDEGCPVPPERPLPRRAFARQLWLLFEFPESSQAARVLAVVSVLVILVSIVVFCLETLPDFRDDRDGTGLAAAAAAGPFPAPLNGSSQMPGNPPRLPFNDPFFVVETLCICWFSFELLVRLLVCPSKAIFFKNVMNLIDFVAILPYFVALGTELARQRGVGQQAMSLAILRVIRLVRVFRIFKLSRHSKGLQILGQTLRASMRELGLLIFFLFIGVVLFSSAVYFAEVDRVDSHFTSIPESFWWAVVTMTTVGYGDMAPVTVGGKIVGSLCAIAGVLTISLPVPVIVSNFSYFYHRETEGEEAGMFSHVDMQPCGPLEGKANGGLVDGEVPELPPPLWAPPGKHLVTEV", "assay": "Kv1.7 channel block, estimated Kd (Table 1)", "format": "binding"}, "Kv1.1": {"biological_target": "Kv1.1 (Homo sapiens, UniProt Q09470)", "sequence (Q09470 whole entry)": "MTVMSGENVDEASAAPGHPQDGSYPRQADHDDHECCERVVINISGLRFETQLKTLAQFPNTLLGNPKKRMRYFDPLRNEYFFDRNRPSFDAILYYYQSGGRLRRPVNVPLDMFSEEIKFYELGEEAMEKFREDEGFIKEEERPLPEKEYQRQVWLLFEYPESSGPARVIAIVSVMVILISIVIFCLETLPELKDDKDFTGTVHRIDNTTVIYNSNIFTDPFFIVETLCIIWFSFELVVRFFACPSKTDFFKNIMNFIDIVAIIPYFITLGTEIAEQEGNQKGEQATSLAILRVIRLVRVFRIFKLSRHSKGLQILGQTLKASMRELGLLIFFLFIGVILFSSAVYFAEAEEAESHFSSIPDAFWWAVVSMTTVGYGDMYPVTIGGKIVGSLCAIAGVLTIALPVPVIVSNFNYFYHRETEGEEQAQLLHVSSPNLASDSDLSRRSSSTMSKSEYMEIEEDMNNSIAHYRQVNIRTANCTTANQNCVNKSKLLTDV", "assay": "Kv1.1 channel block, estimated Kd (Table 1)", "format": "binding"}, "Kv1.5": {"biological_target": "Kv1.5 (Homo sapiens, UniProt P22460)", "sequence (P22460 whole entry)": "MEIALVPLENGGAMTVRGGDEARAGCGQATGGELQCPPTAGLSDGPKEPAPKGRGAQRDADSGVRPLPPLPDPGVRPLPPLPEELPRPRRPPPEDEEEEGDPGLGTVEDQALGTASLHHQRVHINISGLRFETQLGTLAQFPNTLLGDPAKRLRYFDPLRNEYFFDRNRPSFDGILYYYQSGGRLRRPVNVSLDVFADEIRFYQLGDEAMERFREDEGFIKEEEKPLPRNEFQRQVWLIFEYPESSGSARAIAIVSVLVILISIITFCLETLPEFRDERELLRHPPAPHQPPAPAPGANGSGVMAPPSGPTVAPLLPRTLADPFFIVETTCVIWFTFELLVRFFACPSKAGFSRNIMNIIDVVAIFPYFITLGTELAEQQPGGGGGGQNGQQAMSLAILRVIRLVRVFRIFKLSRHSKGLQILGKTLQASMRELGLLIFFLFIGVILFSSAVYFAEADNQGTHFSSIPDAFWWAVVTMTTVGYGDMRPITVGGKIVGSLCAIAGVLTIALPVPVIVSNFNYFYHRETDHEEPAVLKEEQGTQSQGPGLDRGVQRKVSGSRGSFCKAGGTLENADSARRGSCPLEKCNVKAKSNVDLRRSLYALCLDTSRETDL", "assay": "Kv1.5 channel block, estimated Kd (Table 1)", "format": "binding", "details": "Kv1.3 over Kv1.5"}, "IK": {"biological_target": "IK (Homo sapiens, UniProt O15554)", "assay": "IK channel inhibition (Table 1)", "format": "binding", "details": "at 20 μM"}, "[1]": {"test_system": "human peripheral blood lymphocytes", "assay": "Proliferation test, [3H]-thymidine incorporation assay, anti-CD3 stimulated", "format": "cell-based", "details": "Homo sapiens, Lymphocyte; anti-CD3 stimulation, 48 h; read-out: EC50, suppression of proliferation of human peripheral blood lymphocytes", "protocol": "Proliferation Test [^3H]-Thymidine Incorporation Assay\nResting peripheral blood mononuclear cells from healthy volunteers were seeded at 2×10^5 cells per well in medium (RPMI 1640 supplemented 10% fetal calf serum, 2 mM glutamine, 1 mM sodium pyruvate, 1% nonessential amino acids, 100 units/ml penicillin, 100 μg/ml streptomycin and 50 μM β-mercaptoethanol) in flat-bottom 96 well plates (final volume 200 μl). Cells pre-incubated with drug (60 min), were stimulated with 5 ng/ml anti-CD3 Ab) for 48 h. [^3H]-Thymidine (1 μCi per well) was added for the last 6 h. Cells were harvested onto glass fibre filters and radioactivity measured in a scintillation counter. All experiments were done in triplicate. Results are reported as normalised for maximum [^3H]-thymidine incorporation for controls."}, "MEL cells": {"test_system": "MEL cells", "assay": "Flow cytometric measurement of cell viability (PI uptake), MEL cells", "format": "cell-based", "details": "48 h", "protocol": "(§1) Flow Cytometric Measurement of Cell Viability\n(§2) Jurkat E6-1 and MEL were seeded at 5×10^5 cells/ml in twelve-well plates. Drug (100 nM, 1 μM, 2.5 μM and 10 μM) was added in a final DMSO concentration of 0.1%. After 48 h of incubation, cells were harvested by sucking them off the plates. Cells were centrifuged, resuspended in 0.5 ml PBS containing 1 μg/ml propidium iodide (PI), and red fluorescence measured on a FACScan flow cytometer (Becton Dickinson) after 20 min (10^4 cells of every sample being analyzed). The percentage of dead cells was determined by their PI uptake. Incubation with 20% DMSO served as a control for setting the gates of the flow cytometer for dead cells."}, "Jurkat E6-1": {"test_system": "Jurkat E6-1", "assay": "Flow cytometric measurement of cell viability (PI uptake), Jurkat T-cells", "format": "cell-based", "details": "48 h", "protocol": "as §1, §2"}, "mice": {"test_system": "mice", "assay": "Toxicity on intravenous injection into mice", "format": "in vivo", "details": "30 uM injected intravenously"}, "[2]": {"assay": "Cytotoxicity in vitro (remark in Table 1, summary of Table 2)", "format": "cell-based", "details": "MEL and Jurkat cells, Table 2", "protocol": "as §2"}}, "note": "Where two headings read alike, the source gives them in different places.", "data": [{"compound": "COc1c(C(=O)/C=C/c2ccccc2)c(O)c(OC)c2occc12", "note": "[Example 1]", "values": [{"measurement": "Kd", "setting": "Kv1.3; Kv1.3, end, read-out: Est. Kd, Kd end", "result": 120, "unit": "nM"}, {"measurement": "Kd", "setting": "Kv1.3; Kv1.3, peak, read-out: Est. Kd, Kd peak", "result": 750, "unit": "nM"}, {"measurement": "Kd", "setting": "Kv1.3; T-lymphocytes, read-out: Kd (dissociation constant), block of Kv1.3 voltage gated potassium channel in T-lymphocytes", "result": 400, "unit": "nM"}, {"measurement": "Block phasic or not", "setting": "Kv1.7; Kv1.7", "result": "phasic"}, {"measurement": "Kd", "setting": "Kv1.7; Kv1.7, end, read-out: Est. Kd, Kd end", "result": 5000, "unit": "nM"}, {"measurement": "Kd", "setting": "Kv1.7; Kv1.7, peak, read-out: Est. Kd, Kd peak", "result": 25000, "unit": "nM"}, {"measurement": "Kd", "setting": "Kv1.1; Kv1.1, area, read-out: Est. Kd, Kd area", "result": 1200, "unit": "nM"}, {"measurement": "Kd", "setting": "Kv1.1; Kv1.1, end, read-out: Est. Kd, Kd end", "result": 700, "unit": "nM"}, {"measurement": "Kd", "setting": "Kv1.1; Kv1.1, peak, read-out: Est. Kd, Kd peak", "result": 12000, "unit": "nM"}, {"measurement": "Selectivity over Kv1.5", "setting": "Kv1.5", "result": "Cinnamon needles. Selectivity over Kv1.5 is 25-fold. Mp 125-126"}, {"measurement": "IK inhibition", "setting": "IK", "result": "no inhibition"}, {"measurement": "EC50", "setting": "[1]", "result": 1000, "unit": "nM"}, {"measurement": "percentage of dead cells (PI uptake)", "setting": "MEL cells; 100 nM", "result": 4.95, "unit": "%"}, {"measurement": "percentage of dead cells (PI uptake)", "setting": "MEL cells; 1 μM", "result": 6.21, "unit": "%"}, {"measurement": "percentage of dead cells (PI uptake)", "setting": "MEL cells; 2.5 μM", "result": 6.70, "unit": "%"}, {"measurement": "percentage of dead cells (PI uptake)", "setting": "MEL cells; 10 μM", "result": 5.88, "unit": "%"}, {"measurement": "percentage of dead cells (PI uptake)", "setting": "Jurkat E6-1; 100 nM", "result": 3.02, "unit": "%"}, {"measurement": "percentage of dead cells (PI uptake)", "setting": "Jurkat E6-1; 1 μM", "result": 1.47, "unit": "%"}, {"measurement": "percentage of dead cells (PI uptake)", "setting": "Jurkat E6-1; 2.5 μM", "result": 1.78, "unit": "%"}, {"measurement": "percentage of dead cells (PI uptake)", "setting": "Jurkat E6-1; 10 μM", "result": 8.10, "unit": "%"}, {"measurement": "Toxicity in mice", "setting": "mice", "result": "non-toxic"}, {"measurement": "Cytotoxicity in-vitro (summary of Table 2)", "setting": "[2]", "result": "non-cytotoxic"}]}]}
